≈ marks a conversion by molar mass, not a printed value. Read-outs that look alike come from different tables or passages of the source. Marks after values point to notes of the source that are not given here.
Legend:
HIV-1 (strain LAV-1) = assay: microbe, parasite or virus in culture; type: cell-based
[1] = Cytotoxicity in uninfected PHA-stimulated human PBM cells; conditions: human
human PBM cells = assay: as above
HIV-1 RT = target: T1, HIV-1 RT (Human immunodeficiency virus type 1 group M subtype B, UniProt P03366); assay: Anti-HIV-1 RT assay (recombinant enzyme); type: biochemical
T1 construct: made in house; host or cells: Escherichia coli

[2] = system: Parainfluenza Type 3 Virus; assay: organism not typed; type: cell-based; conditions: MA104, read-out: CPI Inhibition EC50
in vitro [3] = conditions: African green monkey
in vitro [4] = conditions: dog
[5] = system: Influenza A (H1N1) Texas/36/91; assay: microbe, parasite or virus in culture; type: cell-based, influenza A virus; conditions: Influenza A virus, H1N1, MDCK, read-out: CPE Inhibition EC50
Measles Virus [6] = assay: microbe, parasite or virus in culture; type: cell-based; conditions: Measles morbillivirus, BSC-1, read-out: CPI Inhibition EC50
in vitro [7] = conditions: African green monkey; remark: listed apart in the source
[8] = system: Influenza A (H1N1) Texas/36/91; assay: microbe, parasite or virus in culture; type: cell-based, influenza A virus; conditions: Influenza A virus, H1N1, MDCK, read-out: Neutral Red EC50
in vitro [9] = conditions: African green monkey; remark: listed apart in the source
[10] = system: Influenza A (H3N2) Beijing/32/92; assay: microbe, parasite or virus in culture; type: cell-based, influenza A virus; conditions: Influenza A virus, H3N2, MDCK, read-out: Neutral Red EC50
[11] = system: Influenza A (H3N2) Beijing/32/92; assay: microbe, parasite or virus in culture; type: cell-based, influenza A virus; conditions: Influenza A virus, H3N2, MDCK, read-out: CPE Inhibition EC50
Influenza B Panama/45/90 [12] = assay: microbe, parasite or virus in culture; type: cell-based; conditions: Influenza B virus, MDCK; Influenza B Panama/45/90; read-out: CPE Inhibition EC50
[13] = system: Parainfluenza Type 3 Virus; assay: organism not typed; type: cell-based; conditions: MA104, read-out: Neutral Red EC50
[14] = system: Madin Darby canine kidney (MDCK) cells; conditions: dog
Influenza B Panama/45/90 [15] = assay: microbe, parasite or virus in culture; type: cell-based; conditions: Influenza B virus, MDCK, read-out: Neutral Red EC50
Measles Virus [16] = assay: Measles virus neutral red dye uptake in BSC-1 cells; type: cell-based; conditions: Measles morbillivirus, BSC-1
[17] = system: Influenza A (A/NWS/33 (H1N1)); assay: Influenza A virus infection in mice; type: in vivo, BALB/c mice
Procedure: Animals: Female 13-15 g specific pathogen-free BALB/c mice were obtained form Simonsen Laboratories (Gilroy, Calif.). They were quarantined 24 h prior to use, and maintained on Wayne Lab Blox and tap water. After being infected, their drinking water contained 0.006% oxytetracycline (Pfizer, New York, N.Y.) to control possible secondary bacterial infections.
Virus: A/NWS/33 (H1N1) was obtained from K. W. Cochran, Univ. of Michigan (Ann Arbor, Mich.). A virus pool was prepared in MDCK cells; this was titrated in mice, ampuled, and stored at −80° C. until used.
Compounds: Robustaflavone was stored at room temperature until used. Ribavirin, used as a positive control, was obtained from ICN Pharmaceuticals (Costa Mesa, Calif.). Vehicles considered included DMSO (Sigma Chemical Co., St. Louis, Mo.), DMF (Sigma), PEG M. W. 200 (Aldrich Chemical Co. Milwaukee, Wis.), 0.4% CMC (Sigma) and 1-methyl-2-pyrrolidinone (MPD, Aldrich).
Arterial Oxygen Saturation (SaO2) Determinations: SaO2 was determined using the Ohmeda Blox 3740 pulse oximeter (Ohmeda, Louisville, Ohio)). The ear probe attachment was used, the probe placed on the thigh of the animal, with the slow instrument mode selected. Readings were made after a 30 second stabilization time on each animal. Use of this device for measuring effects of influenza virus on arterial oxygen saturation have been described.^72
Lung Virus Determinations: Each mouse lung was homogenized and varying dilutions assayed in triplicate for infectious virus in MDCK cells as described previously.^73
4. Effect of robustaflavone in CMC or in DMSO on influenza virus infection in mice. In the study with CMC, robustaflavone was used in dosages of 200 and 100 mg/kg/day; using DMSO vehicle, the dosages were 75 and 37.5 mg/kg/day, with the compound administered i.p. twice daily for 5 days beginning 4 h pre-virus exposure. The mice were used in each dose to monitor effects on SaO2 and death; from an additional group of similarly infected and treated mice, 3 animals were killed on days 3, 5, 7 and 9 to assay for lung score (0=normal, 4=maximal consolidation), weight, and virus titer. Three to four mice were used as toxicity controls, which were weighed prior to treatment and again 18 h after treatment termination, and deaths noted daily. […] Three sets of virus controls were used: Infected-untreated, infected-treated with CMC only, and infected-treated with DMSO only. Twenty animals were used in each of these control groups to monitor SaO2 and death, with 3 additional mice taken in parallel with treated animals to determine effects on lung consolidation and virus titer. Two sets of normal controls were used; one group of three mice was weighed and held in parallel with the toxicity controls. From the second group three mice were killed on days 3 and 9 for comparison of lung score and weight.
Statistical Evaluation: Increase in survivor number was evaluated using chi square analysis with Yates' correction. Mean survival time increases, virus titer and SaO2 value differences were analyzed by t-test. Lung consolidation scores were evaluated by ranked sum analysis.

[18] = system: Respiratory Syncytial Virus; assay: microbe, parasite or virus in culture; type: cell-based; conditions: human respiratory syncytial virus, MA104, read-out: CPE Inhibition EC50
[19] = system: Respiratory Syncytial Virus; assay: microbe, parasite or virus in culture; type: cell-based; conditions: human respiratory syncytial virus, MA104; read-out: Neutral Red EC50
[20] = CPE Inhibition IC50 (cytotoxic)
[21] = ribavirin in saline, 75 mg/kg/day i.p. bid × 5

With `O=C1CC(c2ccc(O)cc2)Oc2c1c(O)cc(O)c2C1C(=O)c2c(O)cc(O)cc2OC1c1ccc(O)cc1` (stereo not shown) [GB-1a(13), GB-1a] the “anti-HIV-1 activity in PBM cells (in words)” value (HIV-1 (strain LAV-1)) was “good activity”, the EC50 (HIV-1 (strain LAV-1); Human immunodeficiency virus 1, PBMC, human PBM cells infected with HIV-1 (strain LAV), read-out: Ant-HIV-1 in PBM cells EC50) was 38 µM and the “Selective Index (SI)” value (HIV-1 (strain LAV-1); PBM cells) was 2.3. For the same compound, the IC50 [1] was 88 µM, the “toxicity against uninfected PHA-stimulated human PBM cells (in words)” value (human PBM cells) was “high toxicity” and the IC50 (HIV-1 RT; Anti-HIV-1 RT IC50, values in parentheses or in words) was 236 µM. The IC50 (HIV-1 RT; HIV-1 RT IC50 (50% inhibition dose)) was 236 µM and the inhibition at 200 µg/mL (HIV-1 RT; read-out: Anti-HIV-1 RT % Inhibition at 200 μg/ml) was 86%.

`NC(=O)c1ncn([C@@H]2O[C@H](CO)[C@@H](O)[C@H]2O)n1` [Ribavirin, ribavirin, reference compound] showed an EC50 [2] of 25 µg/mL (≈ 102 µM), an IC50 (in vitro [3]; [20]) of 120 µg/mL (≈ 491 µM) and an IC50 (in vitro [3]; CPI Inhibition IC50 (cytotoxic)) of 245 µg/mL (≈ 1000 µM). The IC50 (in vitro [4]; CPE Inhibition IC50 (50% cell inhibitory (cytotoxic) concentration)) was 562 µg/mL (≈ 2300 µM), the IC50 (in vitro [4]; [20]) was 562 µg/mL (≈ 2300 µM) and the EC50 [5] was 1.9 µg/mL (≈ 7.78 µM). For the same compound, the EC50 (Measles Virus [6]) was 3 µg/mL (≈ 12.3 µM), the IC50 (in vitro [7]) was 150 µg/mL (≈ 614 µM) and the EC50 [8] was 1.4 µg/mL (≈ 5.73 µM). It also gave an IC50 (in vitro [9]) of 150 µg/mL (≈ 614 µM), an EC50 [10] of 5.7 µg/mL (≈ 23.3 µM) and an EC50 [11] of 4.1 µg/mL (≈ 16.8 µM). The EC50 (Influenza B Panama/45/90 [12]) was 1.5 µg/mL (≈ 6.14 µM), the EC50 [13] was 17 µg/mL (≈ 69.6 µM) and the “CPE Inhibition IC50 (cytotoxic)” value [14] was over 1000 µg/mL. For the same compound, the EC50 (Influenza B Panama/45/90 [15]) was 0.48 µg/mL (≈ 1.97 µM), the EC50 (Measles Virus [16]) was 1 µg/mL (≈ 4.09 µM) and the “inhibition of the infection, in words” value ([17]; ribavirin 75 mg/kg/day, positive control) was “highly active”. The “Infected, Treated MST” value [17, 21] was >21.0** days, the “Infected, Treated Mean SaO2” value [17, 21] was 87.1** % and the “Infected, Treated Surv/Total” value [17, 21] was 10/10**. For the same compound, the EC50 [18] was 12 µg/mL (≈ 49.1 µM) and the EC50 [19] was 6 µg/mL (≈ 24.6 µM).
